Measurements: patent US11793787B2, “Methods and compositions for enhancing anti-tumor immunity by targeting steroidogenesis” (The Broad Institute, Inc., priority 2019, dated 2023)
Where “and” joins values, the source holds several entries; their conditions need not be identical. Equal values may be shown once. Entries after “also recorded” stand apart in the source; their conditions may differ.

Tests used:
CD8+ TILs = test: Flow cytometry of CD8+ TILs from Metyrapone-treated tumor-bearing mice; type: in vivo, mouse; conditions: intra-tumoral Metyrapone, early stage of tumor progression
Description: Isolation of TILs. TILs were isolated by dissociating tumor tissue in the presence of collagenase D (2.5 mg/ml) for 20 minutes prior to centrifugation on a discontinuous Percoll gradient (GE Healthcare). Isolated cells were then used in various assays. Flow cytometry. […] Antigen specific […] […] In vivo and in vitro modulation of glucocorticoid synthesis. MC38-Ova^dim was implanted in wild type C57BL/6 mice and either Metyrapone (50 mg/kg; Fisher Scientific), Corticosterone (2.5 mg/kg) or vehicle control PBS (Gibco) was administered intra-tumorally on Day 5, 6, 7 and 9 post-tumor implantation. In some experiments, MC38-Ova^dim tumor explants or sorted lin^-CD45^+CD24^- cells were cultured in the presence or absence of Metyrapone (25 or 50 ng/ml) for 24 hrs. Supernatants were harvested and corticosterone measured by ELISA (Arbor Assays).

MC38-Ova tumor explants = MC38-Ova tumor explants cultured with Metyrapone, corticosterone ELISA; type: cell-based, mouse; conditions: 24 hrs, Metyrapone 25 or 50 ng/ml
Description: (§1) In vivo and in vitro modulation of glucocorticoid synthesis. MC38-Ova^dim was implanted in wild type C57BL/6 mice and either Metyrapone (50 mg/kg; Fisher Scientific), Corticosterone (2.5 mg/kg) or vehicle control PBS (Gibco) was administered intra-tumorally on Day 5, 6, 7 and 9 post-tumor implantation. In some experiments, MC38-Ova^dim tumor explants or sorted lin^−CD45^+CD24^− cells were cultured in the presence or absence of Metyrapone (25 or 50 ng/ml) for 24 hrs. Supernatants were harvested and corticosterone measured by ELISA (Arbor Assays).

[1] = tested on: Lin-CD45+CD24- monocyte/macrophages from MC38-Ova tumors; test: Tumor-associated monocyte/macrophages cultured with Metyrapone, corticosterone ELISA; type: cell-based, mouse; conditions: 24 hrs culture ex vivo
Description: as §1

MC38-Ova colon carcinoma = test: Intra-tumoral Metyrapone in MC38-Ova tumor-bearing mice, tumor growth; type: in vivo, mouse; conditions: 50 mg/kg, Days 5, 6, 7 and 9
Excerpt: Tumor cell lines used. MC38-Ova^dim was generously provided by Mark Smyth. B16F10 was purchased from ATCC. MC38 was generously provided by Carla Rothlin. MC38-Ova^dim-GFP was generated in Applicants lab as follows, HEK293T cells were transfected with pLenti PGK GFP Puro plasmid. The resulting Lentivirus was then used to infect Mc38Ova^dim cell line to generate a GFP expressing cell line. MC38-Ova^dim (0.5×10^6) or B16F10 (0.25×10^6) and MC38-Ova^dim-GFP (0.5×10^6) cells were implanted subcutaneously into the right flank of mice.
Tumor experiments. Tumor size was measured in two dimensions by caliper and is expressed as the product of two perpendicular diameters. In some experiments, mice were treated with anti-PD-1 (RMP1-14) ([…]) antibodies or control immunoglobulin (Rat IgG2a) i.p. on days 5, 8 and 11 post-tumor implantation. Mice were then monitored for tumor growth. […] Antibodies were administered bi-weekly for a total of 5 treatments (n=9-10).
as §1, with “In some experiments, MC38-Ova^dim tumor explants or sorted lin^−CD45^+CD24^− cells were cultured in the presence or absence of Metyrapone (25 or 50 ng/ml) for 24 hrs.” left out

[2] = tested on: MC38-Ova dim colon carcinoma; test: Intra-tumoral corticosterone in LysMCre+ Cyp11a1fl/fl mice bearing MC38-Ova dim, tumor progression; type: in vivo, mouse; conditions: intra-tumoral corticosterone 2.5 mg/kg, Days 5, 6, 7 and 9
Description: Tumor experiments. Tumor size was measured in two dimensions by caliper and is expressed as the product of two perpendicular diameters. […] Mice were then monitored for tumor growth. […] In vivo and in vitro modulation of glucocorticoid synthesis. MC38-Ova^dim was implanted in wild type C57BL/6 mice and either Metyrapone (50 mg/kg; Fisher Scientific), Corticosterone (2.5 mg/kg) or vehicle control PBS (Gibco) was administered intra-tumorally on Day 5, 6, 7 and 9 post-tumor implantation.

CD8+ T cells [3] = test: RNA-Seq of naive CD8+ T cells cultured with Dex (GC), IL-27 or GC+IL-27 (Tables 1, 2A, 2B, 3, 5-8); type: cell-based, mouse
CD8+ T cells [4] = test: Quantitative RT-PCR of Prdm1, Nfil3 and Tcf7 in GC, IL-27 or GC+IL-27 treated CD8+ T cells; type: cell-based, mouse; conditions: qPCR
Description: Cell culture and treatment with glucocorticoid.
Quantitative PCR. Total RNA was extracted using RNeasy columns (Qiagen) or PicoPure™ RNA Isolation Kit (Thermo Fischer). Reverse transcription of mRNA was performed in a thermal cycler (Bio-Rad) using iScript cDNA Synthesis Kit (Bio-Rad) or SuperScript™ VILO™ cDNA Synthesis Kit (Thermo Fischer). qPCR was performed in the Vii7 Real-Time PCR system (Applied Biosystems) using the primers for Taqman gene expression (Applied Biosystems). Data were normalized to the expression of Actb.

[5] = treated CD8+ T cells, three values per condition, listed as Dex
[6] = treated CD8+ T cells, three values per condition

Molecule: CC(C)(C(=O)c1cccnc1)c1cccnc1 [Metyrapone]
- functional properties of CD8+ TILs compared with loss of GR in CD8+ T cells (CD8+ TILs): resembled that of CD8^+ TILs from E8i-Cre^+ Nr3c1^fl/fl mice and LysM-Cre^+ Cyp11a1^fl/fl mice
- functional properties of CD8+ TILs compared with loss of GR in CD8+ T cells (CD8+ TILs; listed as metyrapone): phenocopies CD8 GR cKO
- level of corticosterone in tumor explant supernatants (MC38-Ova tumor explants): reduced and less
- corticosterone production by tumor-associated monocyte/macrophages [1]: dramatically reduced; also recorded: significantly inhibited
- tumor growth (MC38-Ova colon carcinoma): dramatic tumor growth inhibition

Molecule: C[C@]12C[C@H](O)[C@H]3[C@@H](CCC4=CC(=O)CC[C@@]43C)[C@@H]1CC[C@@H]2C(=O)CO [corticosterone]
- control of tumor progression in LysMCre+ Cyp11a1fl/fl mice [2]: abrogated

Molecule: C[C@@H]1C[C@H]2[C@@H]3CCC4=CC(=O)C=C[C@]4(C)[C@@]3(F)[C@@H](O)C[C@]2(C)[C@@]1(O)C(=O)CO [dexamethasone]
- number of GC-induced genes overlapping with the T cell dysfunction signature (CD8+ T cells [3]; GC versus vehicle control, Table 8): 463
- 1124 expression levels (CD8+ T cells [3]; [5]): 156.6 and 224.35 and 191
- CD28 expression levels (CD8+ T cells [3]; [5]): 31.98 and 33.89 and 35.83
- Lilrb4 expression levels (CD8+ T cells [3]; [5]): 179.28 and 174.41 and 160.09
- Nupr1 expression levels (CD8+ T cells [3]; [5]): 11.81 and 14.26 and 21.7
- Tcf7 expression levels (CD8+ T cells [3]; [5]): 9.54 and 8.42 and 8.72
- Tgfb3 expression levels (CD8+ T cells [3]; [5]): 8.53 and 5.51 and 5.9

B1: IL-27: heterodimeric cytokine of the IL-12 family composed of EBI3 and IL-27p28 (protein, UniProt Q14213 21-229; Q8NEV9 29-243, looked up)
Interleukin-27 subunit beta: RKGPPAALTLPRVQCRASRYPIAVDCSWTLPPAPNSTSPVSFIATYRLGMAARGHSWPCLQQTPTSTSCTITDVQLFSMAPYVLNVTAVHPWGSSSSFVPFITEHIIKPDPPEGVRLSPLAERQLQVQWEPPGSWPFPEIFSLKYWIRYKRQGAARFHRVGPIEATSFILRAVRPRARYYVQVAAQDLTDYGELSDWSLPATATMSLGK
Interleukin-27 subunit alpha: FPRPPGRPQLSLQELRREFTVSLHLARKLLSEVRGQAHRFAESHLPGVNLYLLPLGEQLPDVSLTFQAWRRLSDPERLCFISTTLQPFHALLGGLGTQGRWTNMERMQLWAMRLDLRDLQRHLRFQVLAAGFNLPEEEEEEEEEEEEERKGLLPGALGSALQGPAQVSWPQLLSTYRLLHSLELVLSRAVRELLLLSKAGHSVWPLGFPTLSPQP
- Tcf7 expression (CD8+ T cells [4]): dramatically reduced
- CD28 expression levels (CD8+ T cells [3]; [6]): 48.93 and 37.2 and 39.84
- Lilrb4 expression levels (CD8+ T cells [3]; [6]): 73.62 and 94.25 and 105.87
- Nupr1 expression levels (CD8+ T cells [3]; [6]): 11.93 and 21.86 and 19.79
- Tcf7 expression levels (CD8+ T cells [3]; [6]): 5.37 and 7.39 and 5.57
